Data taken from patent US5219867A, “Platelet aggregation inhibitory agents” (priority 1992, dated 1993).
“Also recorded” adds a separate entry of the source. Counter-ions that a name gives are not always drawn. Like-named read-outs stand apart in the source and are kept apart here.

Legend:
[1] = system: human blood platelets; assay: In vitro inhibition of ADP-induced human platelet aggregation (platelet-rich plasma, aggregometer); type: cell-based; conditions: for IC50: Homo sapiens, Platelet; for Potency in inhibiting aggregation relative to rac-I: in vitro platelet aggregation
Protocol: Procedure for Determining In Vitro Platelet Aggregation-Inhibitory Activity. Adenosine diphosphate (ADP) was used to induce platelet aggregation and was utilized as the sodium salt. A 10 mM stock solution was prepared fresh before each use in modified Tyrode's buffer and working dilutions were prepared with modified Tyrode's buffer immediately prior to use. The buffer contained NaCl (137.00 mM), KCl (2.70 mM), NaHCO3 (11.90 mM), NaH2 PO4 H2 O (0.36 mM) and glucose (5.60 mM) in redistilled water. Adjustment to pH 7.4 was effected by addition of 1N HCl.
The blood was transferred into plastic centrifuge tubes containing 3.2% sodium citrate (blood/citrate ratio 8:1) and centrifuged at 120Xg for 15 minutes at 23° C., yielding platelet-rich plasma (PRP); platelet-poor-plasma (PPP) was obtained by centrifugation of citrated whole blood at 1,100Xg for 15 min at 23° C. The platelet count of PRP was determined and adjusted to a final count of 300,000 platelet per mm^3 by dilution with autologous PPP. […] The plasma so obtained was transferred using a 1.0 ml Centaur pipette into a 50 ml polyethylene centrifuge tube. In order to maintain plasma pH in the appropriate range, the air in the tubes are displaced gently (2 minutes) with a 5% (CO2 -95% air (v/v) mixture and the tube capped. The plasma was maintained at 37° C. in a water bath until used in the aggregation experiments.
Assays of platelet aggregation were performed at least in duplicate, using plasma acquired from different donors, employing a method developed by Quintana, et al. (Quintana, et al., Relationships Between the Chemical Constitution of Carbamoylpiperidines and Related Compounds, and Their Inhibition of ADP-Induced Human Blood Platelet Aggregation, Thromb. Res. Vol. 22, Pages 665-680, 1981); Quintana, et al., Effects of Ethanol and of Other Factors on ADP-Induced Aggregation of Human Blood Platelets in Vitro, Thromb. Res., Vol. 20, Pages 405-415, 1980) (cf. Born, Nature, Vol. 194, Pages 927-929, 1962) and Mustard, et al., J. Lab. Clin. Med., Vol. 64, Pages 548-559, 1964).
Initially, in each experiment, 0.45-ml aliquots of PRP were placed in siliconized cuvettes and stirred (1,100 rpm) in the aggregometer at 37° C. to ascertain the absence of spontaneous aggregation. Appropriate ADP solutions (50 μl) were subsequently injected using a Hamilton microliter syringe to determine the minimal concentration eliciting maximal biphasic aggregation. […] In each case, the concentration of ADP so determined was used in eliciting aggregation throughout each specific set of aggregometric evaluations.
0.5 μl of a solution of the evaluant compound in redistilled 95% ethanol was injected into a stirred ([…]) 0.4-ml aliquot of plasma in a siliconized cuvette in the aggregometer-well (37° C). After 15 seconds, the cuvette was transferred to an incubator (also at 37° C.) and the contents held at this temperature, without stirring, until 2 minutes postinjection. The cuvette was then returned to the aggregometer-well, a base-line being recorded for 2 minutes to detect any spontaneous aggregation. At exactly 4 minutes after injection of the evaluant solution, 50 μl of the appropriate ADP solution was injected and aggregation recorded for 5.5 minutes. Evaluants were studied at least 4 different concentrations. Control experiments (ethanol in a final concentration of 0.095% v/v) were performed in conditions parallel with those involving the respective evaluants, and were initiated either 1 minute prior to or 1 minute after the start of experiments employing the test compounds. This permitted injections to be made precisely at the specified times.

[2] = system: human platelets; assay: Inhibition of collagen-induced aggregation, washed aequorin-loaded platelet suspension; type: cell-based; conditions: for IC50: Homo sapiens, Platelet, collagen-induced aggregation (n = 4), HEPES-buffered saline, 1.0 mM CaCl2, read-out: Ia50 ± S.E. Collagen-induced
Protocol: Procedure for Cytosolic Ionized Calcium Determination. The basic procedure of Yamaguchi, et al. (Thromb. Res., Vol. 44, Pages 165-174, 1986) was followed. Blood was collected from six blood donors, aged 24-38 years, who had fasted overnight and affirmed abstinence from alcohol, caffeine and medications of any kind for a period of at least one week prior to donation. […] Platelets were collected (800 g, 15 min), resuspended in and washed (800 g, 15 min) with HEPES-buffered saline (140 mM NaCl, 2.7 mM KCl, 0.1% bovine albumin, 0.5% glucose, 3.8 mM HEPES, pH 7.6) with EGTA (5 mM) and PGE1 (1 μM). The platelet pellet was resuspended in 90 μl of the same buffer and added to 20μl of 3 mg/ml aequorin solution in a 1.5 ml Eppendorf centrifuge tube. Six 1 μl aliquots of DMSO were added at 90 second intervals with brief, gentle mixing on a Vortex mixer and the platelet suspension was incubated 2 minutes after the last addition. One ml of HEPES-buffered saline was added, gently mixed, and again incubated for 2 minutes. The platelets were pelleted (1000 g, 30 sec), resuspended in HEPES-buffered saline to which was added either 1 mM Mg Cl2, (calcium-free buffer) or 1 mM Mg Cl2 and 1 mM Ca Cl2 (calcium buffer), depending on the experiment. The platelet count was adjusted to 3-4×10^5 platelets/μl.
The Platelet Ionized Calcium Aggregometer (Chrono-Log Corp., Ltd., Havertown, Pa.) was used to obtain simultaneous aggregation and luminescence data under the following experimental conditions: (1) platelet suspension, 1 ml, was equilibrated at 37° C. with stirring at 1100 rpm; (2) 100 μl (1.2 μg) of fibrinogen was added; (3) the vehicle (95% ethanol) or the test compound in vehicle was added; (4) when needed, 10 μl of the desired concentration of EGTA was added 30 seconds prior to addition of the agonist; then (5) the agonist (Collagen, 5 μg or 20 μg) was added and the time noted. At one minute after addition of the agonist in Channel 1, a platelet sample containing fibrinogen in Channel 2 was lysed with 10 μl of a 1:1 solution of Triton X-100 (final concentration 0.005%) 10 mM CaCl2 (final concentration 0.5 mM). Treated and control […] data were corrected for time dependent decay of fluorescence using data from the untreated lysed controls.
Normally 4 compound-treated samples (at 4 different concentrations) interspersed with 3 control samples were evaluated at 4.5 minute intervals starting 18-23 minutes after the DMSO treatment. The Ia50 values were calculated as described earlier. The compound concentrations effecting 50% inhibition (Ica50) of collagen-induced cytosolic ionized calcium values was determined by linear regression analysis.
Compounds I-rac, (+)-I,(IC) and (-)-I(IA) were evaluated. The Ia50 (collagen-induced aggregation) and Ica50 (compound concentration required to inhibit by 50% the collagen-induced rise in cytosolic ionized calcium)values determined with platelet suspensions in HEPES-buffered saline containing 1.0 mM CaCl2 were as follows: […]

SMILES	IC50 ([1]; read-out: IC50 (compound concentration which inhibits ADP-induced platelet aggregation by 50%) ± S.E., racemic compounds, ADP-induced)	IC50 ([1]; read-out: Ia50 (compound concentrations affecting 50% inhibition of aggregation) ± S.E., Table II, ADP-induced, n = 5 for (0)I and 6 for all others)	IC50 ([1]; read-out: Ia50 ± S.E. ADP-Induced, table 3, ADP-induced (n = 5-6))	IC50 [2]	Potency in inhibiting aggregation relative to (-)-I (antipode) ([1]; ADP as agonist, in vitro)	IC50 ([1]; Table II, ADP-induced, n = 5 for (0)I and 6 for all others, read-out: Ia50 (compound concentrations affecting 50% inhibition of aggregation) ± S.E.)	IC50 ([1]; table 3, ADP-induced (n = 5-6), read-out: Ia50 ± S.E. ADP-Induced)	Activity as a platelet aggregation inhibitor, in words ([1]; as compared to racemic (I) / other stereoisomers, listed as (+) enantiomer, dihydrobromide)	Potency in inhibiting aggregation relative to rac-I ([1]; dihydrobromide)	Potency in inhibiting aggregation relative to rac-I ([1]; listed as (+) enantiomer of Compound I, dihydrobromide)	Potency in inhibiting aggregation relative to (-)-I ([2]; collagen as agonist, in vitro)
CCN(CC)C(=O)C1CCCN(Cc2ccc(CN3CCCC(C(=O)N(CC)CC)C3)cc2)C1 (racemic) [Compound I, α-α'-Bis[3-(N,N-diethyl-carbamoyl)piperidino]-p-xylene dihydrobromide]	44.5 ± 12.7 µM	44.5 ± 127 µM	44.5 µM	20.2 µM	–	–	–	–	–	–	–
CCN(CC)C(=O)C1CCCN(Cc2ccc(CN3CCCC(C(=O)N(CC)CC)C3)cc2)C1 (single isomer, unassigned) [IC, α-α'-Bis(3-N,N-diethylcarbamoyl)piperidino]-p-xylene dihydrobromide]	–	–	–	10.7 ± 2.7 µM	15 times	15.3 ± 3.9 µM	15.3 ± 3.9 µM	unexepectedly superior activity; also recorded: possesses most of the therapeutic activity	three times more potent	two to three times more potent	18 times
